Measurements taken from patent US20060052430A1, “Antihistamines for increased tolerance to extreme heat” (priority 2004, published 2006).

What was measured:
chickens = conditions: cimetidine in the diet, stress was not heat; cited from earlier work
[1] = in vivo; cited from earlier work
rat = conditions: literature; cited from earlier work
[2] = conscious rats, i.v. 10 mg/kg in 3% EtOH 30 minutes prior to heat exposure at 44° C. ± 1

Which Stress-induced modulations (chickens) does the source give for `CN/C(=N/CCSCc1nc[nH]c1C)NC#N` [Cimetidine, cimetidine] here?
The Stress-induced modulations was “reduced”.

What about the “Core body temperature after onset of heat stroke until heat shock, vs controls” value (conscious rats; FIG. 1) of the same compound?
Its value is “lower core body temperature”.

What about the “Time a lower, non-pathological core temperature is maintained in extreme heat, vs controls” value (conscious rats; FIG. 1, cimetidine pretreated animals) of the same compound?
The value was 2-4 times longer.

What about the “Time of MAP blood pressure crash, vs controls” value (conscious rats; FIG. 2) of the same compound?
The value was “delayed”.

And the “Increase of interval between initiation of exposure to extreme heat and heat stroke crash to 40 mmHg, vs control” value (conscious rats; cimetidine pretreatment, P<0.05)?
The value was 2.6 fold.

And the “Max. HR (heart rate)” value (conscious rats; [2])?
Its value is 532 ± 28 BPM ± SEM.

What about the “Max. MAP (mean arterial pressure)” value (conscious rats; [2]) of the same compound?
Its value is 173 ± 23 mmHg ± SEM.

What about the “Max. TB (body temperature)” value (conscious rats; [2]) of the same compound?
The value was 41.9 ± 0.9 °C ± SEM.

What about the “Heat Tolerance (time of heat exposure until heat shock, TB ≧ 41.3° C. and MAP <40 mmHg)” value (conscious rats; conscious rats, i.v. 10 mg/kg in 3% EtOH 30 minutes prior to heat exposure at 44° C. ± 1, p<0.05 vs control) of the same compound?
Its value is 315 ± 61 minutes ± SEM.

And the “Heart rate in the interval from exposure to heat stroke, MAP crash, vs controls” value (conscious rats; rat, in vivo)?
The value was “did not differ”.

And the Half-life [1]?
Its Half-life is 2 h.

What about the “Effect in heat-induced brain injury (blood-brain barrier permeability, cerebral blood flow disturbances, edema, cell reactions)” value (rat) of the same compound?
Its value is “beneficial”.
